Measured values published in patent US20260356834A1, “ANTICONVULSIVE COMPOUNDS AND USES THEREOF” (Jazz Pharmaceuticals Research UK Limite, priority 2023, published 2026).
“And” between values parts separate entries of the source, which are not always exact repeats. Equal entries are not always repeated.

System: C57BL/6J mice
Assay: mouse maximal electroshock seizure threshold model using minimal sample sizes (mini-MEST)
[1] = 10 mg/kg i.p., 15 min post dose
[2] = 10 mg/kg i.p., 30 min post dose
[3] = 10 mg/kg i.p., 60 min post dose
[4] = 30 mg/kg i.p., 30 min post dose
[5] = 25 mg/kg p.o., 15 min post dose
[6] = 25 mg/kg p.o., 60 min post dose
[7] = 50 mg/kg p.o., 30 min post dose
[8] = 50 mg/kg p.o., 60 min post dose
[9] = 50 mg/kg p.o., 120 min post dose
[10] = 50 mg/kg p.o., 240 min post dose

Experimental: An increase in seizure threshold is indicative of an anticonvulsive effect.
The ability of a test compound to alter the stimulus intensity, expressed as current (mA), required to induce the presence of tonic hind limb extensor convulsions, is assessed in the MEST.
In the mini-MEST test, a lower n number is used.
Male C57BL/6J mice were housed in groups of 6. Mice were kept under standard conditions (12 hour light cycle; light intensity of 25-75 lux) and fed a diet of certified rodent CR 14% protein rodent diet (LabDiet® 4CR4). Mice were 8-9 weeks old at the start of the study.
Naïve mice were acclimatised to the procedure room in their home cages for up to 7 days, with food and water available ad libitum.
All animals were weighed at the beginning of the study and randomly assigned to treatment groups based on a mean distribution of body weight across groups.
The first animal within a treatment group was given a shock at the expected or estimated CC50 current. For subsequent animals, the current was lowered or raised depending on the convulsions outcome from the preceding animal in log scale intervals.
Data generated from each treatment group were used to calculate the CC50±SEM values for the treatment group.
Vehicle: (5% ethanol, 10% Solutol® (Kolliphor® HS 15), 85% saline). 1 mL of ethanol, 2 mL of Solutol™ were warmed to 60 °C, in 17 mL of 0.9% saline.
Test compounds: 5-50 mg/kg in a 1:2:17 ethanol:Solutol®:saline formulation (as used for vehicle).

## CCCc1cc(O)c(-c2c(C)ccn3ccnc23)c(O)c1 [Compound 2, 2-(7-Methylimidazo[1,2-a]pyridin-8-yl)-5-propylbenzene-1,3-diol]
[1]
  CC50 +/− SEM: 67.5 ± 2.6 mA and 65.8 ± 1.9 mA
  Change from vehicle (CC50): 150% and 145%
[2]
  CC50 +/− SEM: 35.3 ± 1.1 mA
  Change from vehicle (CC50): 32%
[3]
  CC50 +/− SEM: 56.0 ± 1.6 mA
  Change from vehicle (CC50): 109%
[4]
  CC50 +/− SEM: >131.0 mA
  Change from vehicle (CC50): 414%

## CCCc1cc(O)c(-c2c(C)c(Cl)cn3ccnc23)c(O)c1 [Compound 4, 2-(6-Chloro-7-methylimidazo[1,2-a]pyridin-8-yl)-5-propylbenzene-1,3-diol]
[5]
  CC50 +/− SEM: 80.9 ± 3.7 mA
  Change from vehicle (CC50): 216%
25 mg/kg p.o., 30 min post dose
  CC50 +/− SEM: 92.9 ± 1.1 mA and 53.5 ± 3.4 mA and 106.6 ± 1.1 mA
[6]
  CC50 +/− SEM: 70.5 ± 1.1 mA
  Change from vehicle (CC50): 176%
[4]
  CC50 +/− SEM: 70.5 ± 1.1 mA
  Change from vehicle (CC50): 140%
[7]
  CC50 +/− SEM: 80.9 ± 1.1 mA
  Change from vehicle (CC50): 145%
[8]
  CC50 +/− SEM: >131.0 mA
  Change from vehicle (CC50): >297%
[9]
  CC50 +/− SEM: 61.4 ± 1.1 mA
  Change from vehicle (CC50): 100%
[10]
  CC50 +/− SEM: 61.4 ± 3.7 mA
  Change from vehicle (CC50): 100%
